This passage reports % Inhibition of Control Specific Binding (Mean n=2) results from ChEMBL document CHEMBL4800726, “Data for DCP probe MSC-4381” (2021).

The target in assay [1] is Melanocortin receptor 4 (Homo sapiens) (UniProt P32245). Nature of the assay: MC4 (h) Eurofins-Cerep binding assay. Also noted: ligand concentration 0.05 nM. To be noted: filed as agonist, Compound concentration 10.0 uM.
Assay [2] has as its target Somatostatin receptor (Mus musculus) (UniProt P30935+O08858+P30875+P30873+P49660). Nature of the assay: sst (non-selective) Eurofins-Cerep binding assay. In kind it is protein assay. The note with it: filed as agonist, Compound concentration 10.0 uM. Also on record: ligand concentration 0.05 nM.
In assay [3] the target is Histamine H1 receptor (Homo sapiens) (UniProt P35367). Nature of the assay: H1 (h) Eurofins-Cerep binding assay. Also on record: ligand concentration 1 nM. The note with it: filed as antagonist, Compound concentration 10.0 uM.
Histamine H1 receptor (Homo sapiens), sequence (P35367 whole entry): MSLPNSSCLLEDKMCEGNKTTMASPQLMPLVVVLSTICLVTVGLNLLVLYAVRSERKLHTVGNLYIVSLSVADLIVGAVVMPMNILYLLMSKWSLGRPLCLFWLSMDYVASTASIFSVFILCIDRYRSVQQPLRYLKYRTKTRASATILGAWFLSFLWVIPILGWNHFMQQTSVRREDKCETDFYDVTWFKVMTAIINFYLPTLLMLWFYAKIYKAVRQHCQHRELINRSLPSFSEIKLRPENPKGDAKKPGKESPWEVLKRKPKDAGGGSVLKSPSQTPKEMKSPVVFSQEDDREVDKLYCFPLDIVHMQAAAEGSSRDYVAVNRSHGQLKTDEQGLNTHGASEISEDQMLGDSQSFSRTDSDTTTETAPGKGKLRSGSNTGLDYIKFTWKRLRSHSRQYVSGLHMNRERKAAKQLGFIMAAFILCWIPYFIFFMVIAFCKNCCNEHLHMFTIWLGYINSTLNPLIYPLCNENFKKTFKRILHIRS

Melanocortin receptor 4 (Homo sapiens), sequence (P32245 whole entry): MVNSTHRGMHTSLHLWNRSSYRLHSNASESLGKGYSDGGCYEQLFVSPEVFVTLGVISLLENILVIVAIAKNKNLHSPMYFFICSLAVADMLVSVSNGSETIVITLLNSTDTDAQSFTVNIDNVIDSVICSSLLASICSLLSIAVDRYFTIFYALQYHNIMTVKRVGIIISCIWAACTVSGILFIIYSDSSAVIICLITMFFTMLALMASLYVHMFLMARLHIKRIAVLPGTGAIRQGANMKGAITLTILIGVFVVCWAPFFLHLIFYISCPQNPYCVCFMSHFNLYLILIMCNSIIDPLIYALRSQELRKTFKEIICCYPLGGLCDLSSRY
Somatostatin receptor (Mus musculus), sequence (P30935 whole entry): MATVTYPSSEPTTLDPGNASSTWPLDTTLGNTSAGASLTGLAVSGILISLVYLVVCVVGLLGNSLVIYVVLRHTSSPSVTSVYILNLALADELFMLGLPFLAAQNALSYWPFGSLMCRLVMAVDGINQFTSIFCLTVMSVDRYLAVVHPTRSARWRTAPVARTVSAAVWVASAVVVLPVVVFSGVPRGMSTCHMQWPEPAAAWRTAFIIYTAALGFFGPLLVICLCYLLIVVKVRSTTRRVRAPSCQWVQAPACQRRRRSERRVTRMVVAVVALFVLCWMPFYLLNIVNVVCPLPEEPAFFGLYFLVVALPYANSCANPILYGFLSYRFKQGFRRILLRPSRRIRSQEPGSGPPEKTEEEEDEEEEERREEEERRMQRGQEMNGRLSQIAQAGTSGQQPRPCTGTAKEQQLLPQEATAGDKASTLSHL
Somatostatin receptor (Mus musculus), sequence (O08858 whole entry): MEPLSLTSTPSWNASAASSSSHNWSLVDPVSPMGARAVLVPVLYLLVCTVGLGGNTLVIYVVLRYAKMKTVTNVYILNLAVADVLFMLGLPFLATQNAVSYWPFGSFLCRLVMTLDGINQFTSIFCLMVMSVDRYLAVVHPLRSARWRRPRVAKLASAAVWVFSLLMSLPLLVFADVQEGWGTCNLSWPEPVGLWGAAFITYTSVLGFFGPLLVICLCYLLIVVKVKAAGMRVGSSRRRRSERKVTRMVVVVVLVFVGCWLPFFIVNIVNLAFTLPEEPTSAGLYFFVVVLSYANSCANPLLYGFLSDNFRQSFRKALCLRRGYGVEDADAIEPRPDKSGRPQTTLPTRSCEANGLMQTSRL
Somatostatin receptor (Mus musculus), sequence (P30875 whole entry): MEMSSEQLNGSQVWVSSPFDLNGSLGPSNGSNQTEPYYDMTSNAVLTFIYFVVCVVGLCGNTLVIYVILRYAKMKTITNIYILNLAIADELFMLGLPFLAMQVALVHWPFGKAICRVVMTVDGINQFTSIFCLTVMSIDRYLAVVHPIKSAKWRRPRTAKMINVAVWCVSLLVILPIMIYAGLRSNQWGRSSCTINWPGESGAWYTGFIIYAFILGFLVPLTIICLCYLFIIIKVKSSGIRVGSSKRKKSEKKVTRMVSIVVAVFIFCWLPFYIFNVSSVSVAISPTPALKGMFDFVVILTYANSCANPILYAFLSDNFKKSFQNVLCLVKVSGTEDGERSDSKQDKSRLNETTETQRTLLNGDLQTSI
Somatostatin receptor (Mus musculus), sequence (P30873 whole entry): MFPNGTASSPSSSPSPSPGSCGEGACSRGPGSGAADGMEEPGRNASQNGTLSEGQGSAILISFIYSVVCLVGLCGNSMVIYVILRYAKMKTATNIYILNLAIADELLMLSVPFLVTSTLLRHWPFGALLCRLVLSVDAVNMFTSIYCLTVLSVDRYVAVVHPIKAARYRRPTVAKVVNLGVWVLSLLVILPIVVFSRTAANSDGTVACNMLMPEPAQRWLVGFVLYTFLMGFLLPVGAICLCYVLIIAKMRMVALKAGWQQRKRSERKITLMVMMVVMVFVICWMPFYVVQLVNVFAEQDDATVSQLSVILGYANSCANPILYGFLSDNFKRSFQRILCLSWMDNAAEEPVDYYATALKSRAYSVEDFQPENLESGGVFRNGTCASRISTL
Somatostatin receptor (Mus musculus), sequence (P49660 with tags, fused parts or gaps): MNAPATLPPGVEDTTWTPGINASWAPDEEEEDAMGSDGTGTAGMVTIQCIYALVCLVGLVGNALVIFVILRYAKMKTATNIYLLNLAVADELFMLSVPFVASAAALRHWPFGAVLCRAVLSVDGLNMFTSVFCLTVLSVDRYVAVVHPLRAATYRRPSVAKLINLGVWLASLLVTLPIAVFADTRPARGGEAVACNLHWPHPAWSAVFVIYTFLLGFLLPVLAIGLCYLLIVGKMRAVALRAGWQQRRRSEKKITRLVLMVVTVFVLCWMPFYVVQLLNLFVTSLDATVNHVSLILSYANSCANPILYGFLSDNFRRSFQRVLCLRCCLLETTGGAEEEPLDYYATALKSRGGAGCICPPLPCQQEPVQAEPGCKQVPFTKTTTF

Turning to `CCOc1ccc(S(=O)(=O)Nc2ccc(Cl)cc2C#Cc2cnc(C(=O)O)cc2OC)c2ncccc12` [MSC-4381], the % Inhibition of Control Specific Binding (Mean n=2) in assay [1] is -8%; in assay [2] it was -21.6%; in assay [3] it was 27.6%.
